Source: US6025375A, “4,5-diaryloxazole derivatives” (Fujisawa Pharmaceutical Co., Ltd., priority 1993, dated 2000)

Assays:
[1] = test system: mean arterial blood pressure; assay: Effect on mean arterial blood pressure in conscious rats; assay type: in vivo; details: 3.2 mg/kg, orally, suspended in 0.5% methyl cellulose; conscious male Sprague-Dawley rats
Experimental: ii) Effect on mean arterial blood pressure in conscious rats
Sodium [3-[[(1S)-2-(4,5-diphenyloxazol-2-yl)-2-cyclohexen-1-yl]methyl]phenoxy]acetate
Male Sprague-Dawley rats, aged 8-9 weeks, were anesthetized with diethyl ether and a polyethylene cannula filled with heparin solution was inserted into the femoral artery of the rats to measure mean blood pressure. Mean blood pressure was measured with a pressure transducer and recorded on a polygraph. Two hours after operation, the test compound suspended in 0.5% methyl cellulose was administered orally in a volume of 5 ml/kg. Oral hypotensive effect of the test compound was expressed as the maximal decrease (R max). Briefly, R max was expressed as maximal % change compared to mean blood pressure prior to the administration of the test compound.

[2] = test system: human platelet aggregation induced by ADP; assay: Inhibition of human platelet aggregation induced by ADP; assay type: cell-based; details: 3.2 × 10^-7 M, platelet rich plasma, ADP 2.5 μM, mean ± S.E.
Experimental: i) Inhibition of human platelet aggregation induced by ADP
Isomer C obtained in Example 2.
Human blood was obtained from healthy volunteers and mixed with 1/10 volume of 3.8% sodium citrate, pH 7.4. The citrate blood was centrifuged at 150×g for 10 minutes and the platelet rich plasma (PRP) was removed. The remaining blood was centrifuged for a further 10 minutes at 1500×g to prepare the platelet poor plasma (PPP), which was used as a reference for platelet aggregation. Aggregation studies were carried out using HEMATRACER 801 (NBS, Japan), a 8 channel aggregometer. 25 μl sample solution and 225 μl of PRP were mixed and stirred at 1000 rpm for 2 minutes at 37° C. Aggregation was induced by ADP solution at the final concentration of 2.5 μM.

| SMILES | R max (%): maximal % change (decrease) in mean blood pressure compared to that prior to administration [1] [%] | inhibition at 0.32 µM [2] [%] |
| --- | --- | --- |
| O=C(O)COc1cccc(C[C@@H]2CCCC=C2c2nc(-c3ccccc3)c(-c3ccccc3)o2)c1 [(+)-Sodium [3-[[(1S)-2-(4,5-diphenyloxazol-2-yl)-2-cyclohexen-1-yl]methyl]phenoxy] acetate] | 31.3 | – |
| O=C(O)COc1cccc(CC2CCCCC2c2nc(-c3ccccc3)c(-c3ccccc3)o2)c1 (single isomer, unassigned) [Isomer C, cis- or trans-1-[(3-carboxymethoxyphenyl)methyl]-2-(4,5-diphenyloxazol-2-yl)cyclohexane] | – | 100 ± 0.4 |
